Data on 1 compound can be found in US9682060B2, “Small molecules that induce intrinsic pathway apoptosis” (The Board of Trustees of the University of Illinois, priority 2015, dated 2017).

One assay deals with HL-60 cells. Nature of the assay: High-throughput cell death screen (MTS). It is filed as cell-based, human. The settings on record: 1 μM, 24 hours. The method, then: High-Throughput Cell Death Screen.
HL-60 cells were plated into 384 well plates (50 μL of 2×10^6 cells/mL per well) in RPMI cell culture media. Library compounds were transferred using a 384-pin transfer apparatus (V & P Scientific, San Diego) which transferred 0.1 μL from 10 mM DMSO stock solutions to achieve a final concentration of 20 μM. Controls containing DMSO only and 10 μM etoposide were used to serve as live and dead controls respectively. The cells were incubated for 24 hours.

The next assay has as its system SKW 6.4 cells. Nature of the assay: Immunoblotting of caspase activation. The class given is cell-based, Human. Particulars: 10 μM. The method, then:
U-937 cells (3×10^6 cells in 2 mL RPMI) or SKW 6.4 cells (5×10^6 cells in 2 mL RPMI) were treated with compound (1% final DMSO v/v) for the appropriate period of time. After centrifugation and washing with PBS, cells were lysed with RIPA lysis buffer containing protease cocktail inhibitor III (Calbiochem) and cell debris removed by centrifugation (16000×g 5 min). The lysate concentrations were normalized after determination of protein concentration by the Bradford assay and whole cell lysate (40-60 μg) was resolved by 4-20% gradient SDS-PAGE gel electrophoresis at 120 V for 70 min after which proteins were transferred onto PVDF membranes (60 V for 2 hours) and blocked in 5% BSA or fat-free milk in TBST (as per primary antibody manufacturer's instructions) overnight at 4° C. The membranes were blotted for molecules of interest with primary antibody (1:1000 in 5% BSA or milk in TBST) overnight at 4° C. The bound primary antibodies were detected using appropriate secondary HRP conjugated antibodies (1:5000 in TBST) for 1 hour at room temperature and visualized by ECL autoradiography or with an Image Quant LAS 4010. The membranes were stripped in acidic methanol, blocked and re-probed as necessary.

In the next assay the test system is HL-60 VCR. Nature of the assay: Raptinal toxicity in various cell lines, 24 hour IC50. The class given is cell-based. Particulars: HL60/VCR; HL-60 VCR (Human Leukemia Vincristine Resistant); 24 hour incubation; mean ± SD. The method, then: MTS Assay for Suspension Cells.
Serial dilutions of compound in 100% DMSO were added in triplicate (2 μL to each well) to empty wells of a 96-well plate. Suspension cells (HL-60, U-937, SKW 6.4, Jurkat W T, Jurkat CASP8^−/−, Jurkat FADD^−/−, Jurkat Bcl-2) cells in RPMI 1640 media were added to 96-well plates (198 μL containing 4×10^4 cells) and the cells incubated for 24 hours.

The test system of assay [1] is U-937 cells. Nature of the assay: Cell morphology by light, scanning electron and transmission electron microscopy. The class given is cell-based, Human. Particulars: 10 μM. Here is the method: Cell Morphology by Light Microscopy.
Phase contrast images of U-937 cells treated with 10 μM Raptinal were taken with an Olympus DP-21 microscope digital camera. The cells were kept warm between images by returning the plate to the 37° C. incubator.
Scanning Electron Microscopy.
U-937 cells (4×10^6 cells in 8 mL 0.45 micron-filtered cell culture media) were treated with 1% DMSO) or 10 μM Raptinal in 10 cm culture dishes for 60 minutes. The cells were centrifuged (250×g, 5 min) and the media aspirated. Ice-cold Karnovsky's fixative (1 mL of 0.45 micron filtered) was added to the cell pellet which was resuspended by gently agitation. The cells were fixed overnight at 4° C. and submitted for scanning electron microscopy (SEM) sample processing. The cells were stained with OsO4, placed on filter paper and dehydrated. After mounting, the cells were coated with Pd/Au and scanning electron microscopy was performed.
Transmission Electron Microscopy.
U-937 cells (4 mL of 5×10^5 cells/ml) were treated with DMSO or 10 μM of Raptinal for 5, 30, and 60 minutes. The cells were centrifuged 400×g for 5 min and the media aspirated. The cells were fixed by the addition of Karnovsky's fixing solution (0.5 mL) and placed in a 4° C. fridge overnight. The next day, the cells were microwave fixed, stained with 2% OsO4, washed with 3% KCN and enbloc stained with uranyl acetate. The samples were dehydrated with acetonitrile and ethanol, suspended in pure epoxy, and embedded overnight at 85° C. The embedded samples were cut into thick and then thin sections and these were mounted and viewed.

Assay [2] relates to U-937 cells. Nature of the assay: Mitochondrial permeability transition pore (MPTP) calcein-cobalt assay. It is filed as cell-based, Human. The settings on record: calcein-cobalt quenching. The method, then: Mitochondrial Permeability Transition Pore (MPTP) Calcein-Cobalt Assay.
U-937 cells (1×10^6 cells/mL in HBSS) were loaded with calcein-AM (20 nM final concentration) for 45 minutes at 37° C. The cells were washed with HBSS and resuspended in RPMI and plated into a 24-well plate (1×10^6 cells in 1 mL). The cells were treated with Raptinal (10 μM) for 15, 30, 45, 60 and 90 minutes. Cobalt(II) chloride was added (10 μL of 80 mM stock in HBSS) to the cells 10 minutes prior to the end of the time points. The cells were pelleted and resuspended in HBSS (0.5 mL) and calcein fluorescence was measured by flow cytometry. As a positive control for MPTP, ionomycin and calcium were added to calcein-labeled cells in HBSS 10 minutes prior to analysis by flow cytometry.

Assay [3] has as its system caspase-3/-7 activity in MIA PaCa-2 cells. Nature of the assay: Whole cell caspase activity assay (Ac-DEVD-AFC). Particulars: transfected MIA PaCa-2 cells; 10 μM for 1 hour. The class given is cell-based, Human. The method, then:
Whole Cell Caspase Activity Assay.
The caspase activity assay was conducted in 96-well plates using transfected cells (see Example 3 for transfection protocol). Transfected cells were treated with 10 μM Raptinal for 1 hour, which corresponded to 40% of maximal caspase-3/-7 activity achievable by Raptinal. After treatment, the media was replaced with PBS (150 μL) and 50 μL of freshly made 4× caspase assay buffer (containing 20 μM Ac-DEVD-AFC) (Stennicke and Salvesen, 1997). After one hour incubation at room temperature (^˜22° C.) in the dark, the fluorescence of cleaved AFC was read on a spectrofluorometer (Ex: 380 nm, Em: 500 nm). The results were expressed as the relative caspase-3/-7 activity and normalized by designating the vehicle (0.5% DMSO) as 0% activity and Raptinal treatment as 100% activity.

Another assay relates to zebrafish embryos. Nature of the assay: Apoptosis in zebrafish (secretory annexin V-YFP). It is filed as in vivo. The settings on record: transgenic embryos 24 hours post fertilization; 10 μM for 1.5 hours. Here is the method:
Zebrafish experiments were performed as described (van Ham et al., 2010). TuAB zebrafish embryos were used for all experiments and were incubated at 28° C. in HEPES-buffered E3 zebrafish medium (pH 7.2) in the dark. Chemical treatments (10 μM Raptinal or vehicle, 1% v/v final DMSO) were performed in multi-well plates in buffered E3 medium. Images were taken using an AxioCam MRc camera and AxioVision 4.8 software (Zeiss). To quantify apoptosis, the number of secA5-YFP+ apoptotic cells was counted manually in embryos using a fluorescence dissection stereomicroscope (Discovery V8; Zeiss, Germany).

The next assay has as its system HFF-1. Nature of the assay: Raptinal toxicity in various cell lines, 24 hour IC50. It is filed as cell-based. The settings on record: HFF-1 (Human Foreskin Fibroblast); 24 hour incubation; mean ± SD.

Structures are written as SMILES. “Also recorded” adds a separate entry of the source.

One may read the IC50 as the concentration that gives 50% inhibition. Read a high IC50 as weaker potency in that assay. As for `O=CC1(C2(C=O)c3ccccc3-c3ccccc32)c2ccccc2-c2ccccc21` [Raptinal, [9,9′]bifluorenyl-9,9′-dicarbaldehyde], the “cell death in retest of screen hits” value with HL-60 cells was “quantitative cell death”. For the same compound, the “time of activation of initiator caspase-9” value in the assay with SKW 6.4 cells was found to be 20 min. Moreover, in the assay on SKW 6.4 cells, the “time to complete cleavage of procaspase-9, procaspase-8 and procaspase-3” value is no more than 45 min. Also, the “procaspase-3 activation (immunoblot)” value in the assay with SKW 6.4 cells (one hour of exposure) was “the only agent capable of inducing procaspase-3 activation”. Besides, the IC50 in the assay on HL-60 VCR was 1.6 ± 0.5 µM; with HFF-1, 3.3 ± 0.2 µM. In addition, the “mitochondrial morphology (transmission electron microscopy)” value in the assay with U-937 cells [1] (after 5 minutes) was “substantial mitochondrial swelling”. The blebbing result with U-937 cells [1] (at 30 min) is listed as “modest”; with U-937 cells [1] (at 60 min), “extensive”. For the same compound, in the assay on U-937 cells [2], the “mitochondrial permeability transition pore (MPTP) formation” value is “does not induce; also recorded: did not undergo mitochondrial-permeability-transition-pore (MPTP) formation”. Also, the “caspase-3/-7 activity as share of maximal activity achievable by Raptinal” value in assay [3] is listed as 40%. Also, the apoptotic cells in the assay with zebrafish embryos was found to be 80 cells per fish.
